Results on 24 compounds are retold here after US10590132B2, “Selective estrogen receptor down-regulators” (AstraZeneca AB, priority 2017, dated 2020).

The data set can be described thus: Human plasma protein binding (equilibrium dialysis). In kind it is in vitro ADME. Particulars: dialysis 18 hours. Background: In equilibrium dialysis free small molecules cross a membrane that holds back macromolecules.
For the compound `Cc1ccc2[nH]c3c(c2c1)C[C@@H](C)N(CC(F)(F)CO)[C@@H]3c1c(F)cnc(OCCNCCCF)c1F` [Example 66, 3-((1R,3R)-1-(3,5-difluoro-2-(2-((3-fluoropropyl)amino)ethoxy)pyridin-4-yl)-3,6-dimethyl-1,3,4,9-tetrahydro-2H-pyrido[3,4-b]indol-2-yl)-2,2-difluoropropan-1-ol], the “Human plasma protein binding (% free)” value came out at 1.3 % free.
The same measure for `C[C@@H]1Cc2c([nH]c3cc(F)ccc23)[C@@H](c2c(F)ccc(OCCNCCCF)c2F)N1CC(F)(F)CO` [Example 61, 3-((1R,3R)-1-(2,6-difluoro-3-(2-((3-fluoropropyl)amino)ethoxy)phenyl)-7-fluoro-3-methyl-1,3,4,9-tetrahydro-2H-pyrido[3,4-b]indol-2-yl)-2,2-difluoropropan-1-ol]: 2.0 % free.
Next, `C[C@@H]1Cc2c([nH]c3ccccc23)[C@@H](c2c(F)ccc(OCCNCCCF)c2F)N1CC1(F)COC1` [Example 13, N-(2-(2,4-difluoro-3-((1R,3R)-2-((3-fluorooxetan-3-yl)methyl)-3-methyl-2,3,4,9-tetrahydro-1H-pyrido[3,4-b]indol-1-yl)phenoxy)ethyl)-3-fluoropropan-1-amine]: 3.5 % free; `COc1ncc(NCCNCCCF)cc1[C@@H]1c2[nH]c3ccccc3c2C[C@@H](C)N1CC(F)(F)F` [Example 41, N1-(3-fluoropropyl)-N2-(6-methoxy-5-((1R,3R)-3-methyl-2-(2,2,2-trifluoroethyl)-2,3,4,9-tetrahydro-1H-pyrido[3,4-b]indol-1-yl)pyridin-3-yl)ethane-1,2-diamine]: 1.8 % free.
As to `C[C@@H]1Cc2c([nH]c3ccccc23)[C@@H](c2c(F)ccc(OCCN(C)CCCF)c2F)N1CC1(F)COC1` [Example 154, N-(2-(2,4-difluoro-3-((1R,3R)-2-((3-fluorooxetan-3-yl)methyl)-3-methyl-2,3,4,9-tetrahydro-1H-pyrido[3,4-b]indol-1-yl)phenoxy)ethyl)-3-fluoro-N-methylpropan-1-amine], the “Human plasma protein binding (% free)” value came out at 2.7 % free.
Next, `C[C@@H]1Cc2c([nH]c3ccccc23)[C@@H](c2c(F)ccc(OCCNCCCF)c2Cl)N1CC(C)(C)C(=O)O` [Example 131, 3-((1R,3R)-1-(2-chloro-6-fluoro-3-(2-((3-fluoropropyl)amino)ethoxy)phenyl)-3-methyl-1,3,4,9-tetrahydro-2H-pyrido[3,4-b]indol-2-yl)-2,2-dimethylpropanoic acid]: 32 % free; `Cc1c(OCCNCCCF)ccnc1[C@@H]1c2[nH]c3ccccc3c2C[C@@H](C)N1CC(F)(F)CO` [Example 96, 2,2-difluoro-3-((1S,3R)-1-(4-(2-((3-fluoropropyl)amino)ethoxy)-3-methylpyridin-2-yl)-3-methyl-1,3,4,9-tetrahydro-2H-pyrido[3,4-b]indol-2-yl)propan-1-ol]: 7.1 % free.
The same measure for `C[C@@H]1Cc2c([nH]c3ccccc23)[C@@](C)(c2cccc(OCCNCCCF)c2)N1CC(F)(F)F` [Example 75, N-(2-(3-((1R,3R)-1,3-dimethyl-2-(2,2,2-trifluoroethyl)-2,3,4,9-tetrahydro-1H-pyrido[3,4-b]indol-1-yl)phenoxy)ethyl)-3-fluoropropan-1-amine]: 0.08 % free; for `C[C@@H]1Cc2c([nH]c3ccccc23)[C@@H](c2cc(F)cc(OCCNCCCF)c2F)N1CC(F)(F)F` [Example 31, N-(2-(2,5-difluoro-3-((1R,3R)-3-methyl-2-(2,2,2-trifluoroethyl)-2,3,4,9-tetrahydro-1H-pyrido[3,4-b]indol-1-yl)phenoxy)ethyl)-3-fluoropropan-1-amine]: 0.41 % free.
The same measure for `C[C@@H]1Cc2c([nH]c3ccccc23)[C@@H](c2ccnc(OCCNCCCF)c2)N1CC(F)(F)F` [Example 102, 3-fluoro-N-(2-((4-((1R,3R)-3-methyl-2-(2,2,2-trifluoroethyl)-2,3,4,9-tetrahydro-1H-pyrido[3,4-b]indol-1-yl)pyridin-2-yl)oxy)ethyl)propan-1-amine]: 1.4 % free; for `C[C@@H]1Cc2c([nH]c3ccccc23)[C@@H](c2cc(OCCNCCCF)ccc2CO)N1CC(F)(F)F` [Example 70, (4-(2-((3-fluoropropyl)amino)ethoxy)-2-((1R,3R)-3-methyl-2-(2,2,2-trifluoroethyl)-2,3,4,9-tetrahydro-1H-pyrido[3,4-b]indol-1-yl)phenyl)methanol]: 23 % free; for `C[C@@H]1Cc2c([nH]c3ccccc23)[C@@H](c2c(F)ccc(OCCNCCCF)c2Cl)N1CC(F)(F)CO` [Example 85, 3-((1R,3R)-1-(2-chloro-6-fluoro-3-(2-((3-fluoropropyl)amino)ethoxy)phenyl)-3-methyl-1,3,4,9-tetrahydro-2H-pyrido[3,4-b]indol-2-yl)-2,2-difluoropropan-1-ol]: 1.0 % free.
For the compound `C[C@@H]1Cc2c([nH]c3ccccc23)[C@@H](c2c(F)ccc(OCCNCCCF)c2F)N1CC1(S(C)(=O)=O)CC1` [Example 77, N-(2-(2,4-difluoro-3-((1R,3R)-3-methyl-2-((1-(methylsulfonyl)cyclopropyl)methyl)-2,3,4,9-tetrahydro-1H-pyrido[3,4-b]indol-1-yl)phenoxy)ethyl)-3-fluoropropan-1-amine], the “Human plasma protein binding (% free)” value worked out at 5.5 % free.
Next, `COc1ccc(NCCNCCCF)cc1[C@@H]1c2[nH]c3ccccc3c2C[C@@H](C)N1CC(F)(F)F` [Example 40, N1-(3-fluoropropyl)-N2-(4-methoxy-3-((1R,3R)-3-methyl-2-(2,2,2-trifluoroethyl)-2,3,4,9-tetrahydro-1H-pyrido[3,4-b]indol-1-yl)phenyl)ethane-1,2-diamine]: 0.89 % free.
The same measure for `COc1ccc(OC[C@@H](C)NCCCF)cc1[C@@H]1c2[nH]c3ccccc3c2C[C@@H](C)N1CC(F)(F)CO` [Example 50, 2,2-difluoro-3-((1R,3R)-1-(5-((R)-2-((3-fluoropropyl)amino)propoxy)-2-methoxyphenyl)-3-methyl-1,3,4,9-tetrahydro-2H-pyrido[3,4-b]indol-2-yl)propan-1-ol]: 7.1 % free; for `C[C@@H]1Cc2c([nH]c3ccccc23)[C@@H](c2cccc(OCCNCCCF)c2C(F)F)N1CC(F)(F)CO` [Example 68, 3-((1R,3R)-1-(2-(difluoromethyl)-3-(2-((3-fluoropropyl)amino)ethoxy)phenyl)-3-methyl-1,3,4,9-tetrahydro-2H-pyrido[3,4-b]indol-2-yl)-2,2-difluoropropan-1-ol]: 1.2 % free; for `C[C@@H]1Cc2c([nH]c3ccccc23)[C@@H](c2cccc(OCCNCCCF)c2Cl)N1CC(F)(F)F` [Example 25, N-(2-(2-chloro-3-((1R,3R)-3-methyl-2-(2,2,2-trifluoroethyl)-2,3,4,9-tetrahydro-1H-pyrido[3,4-b]indol-1-yl)phenoxy)ethyl)-3-fluoropropan-1-amine]: 0.080 % free.
Next, `COc1c(F)cc(OCCNCCCF)cc1[C@@H]1c2[nH]c3ccccc3c2C[C@@H](C)N1CC(F)(F)F` [Example 27, 3-fluoro-N-(2-(3-fluoro-4-methoxy-5-((1R,3R)-3-methyl-2-(2,2,2-trifluoroethyl)-2,3,4,9-tetrahydro-1H-pyrido[3,4-b]indol-1-yl)phenoxy)ethyl)propan-1-amine]: 0.42 % free; `C[C@@H]1Cc2c([nH]c3ccccc23)[C@@H](c2cncc(OCCNCCCF)c2)N1CC(F)(F)F` [Example 101, 3-fluoro-N-(2-((5-((1R,3R)-3-methyl-2-(2,2,2-trifluoroethyl)-2,3,4,9-tetrahydro-1H-pyrido[3,4-b]indol-1-yl)pyridin-3-yl)oxy)ethyl)propan-1-amine]: 8.4 % free.
Turning to `COc1ccc(OCCNCCCF)cc1[C@@H]1c2[nH]c3ccccc3c2C[C@@H](C)N1C[C@H](C)C(=O)O` [Example 53, (S)-3-((1R,3R)-1-(5-(2-((3-fluoropropyl)amino)ethoxy)-2-methoxyphenyl)-3-methyl-1,3,4,9-tetrahydro-2H-pyrido[3,4-b]indol-2-yl)-2-methylpropanoic acid], the “Human plasma protein binding (% free)” value was 80 % free.
Take `Cc1c(NCCNCCCF)ccc(F)c1[C@@H]1c2[nH]c3ccccc3c2C[C@@H](C)N1C[C@H](C)C(=O)O` [Example 135, (S)-3-((1R,3R)-1-(6-fluoro-3-((2-((3-fluoropropyl)amino)ethyl)amino)-2-methylphenyl)-3-methyl-1,3,4,9-tetrahydro-2H-pyrido[3,4-b]indol-2-yl)-2-methylpropanoic acid]: the “Human plasma protein binding (% free)” value was found to be 32 % free.
The same measure for `C[C@@H]1Cc2c([nH]c3ccccc23)[C@@H](c2c(F)cnc(OCCNCCCF)c2F)N1CC(F)(F)F` [Example 107, N-(2-((3,5-difluoro-4-((1R,3R)-3-methyl-2-(2,2,2-trifluoroethyl)-2,3,4,9-tetrahydro-1H-pyrido[3,4-b]indol-1-yl)pyridin-2-yl)oxy)ethyl)-3-fluoropropan-1-amine]: 1 % free; for `Cc1c(OCCN(C)CCCF)ccc(F)c1[C@@H]1c2[nH]c3ccccc3c2C[C@@H](C(F)(F)F)N1C[C@H](C)C(=O)O` [Example 149, (S)-3-((1R,3S)-1-(6-fluoro-3-(2-((3-fluoropropyl)(methyl)amino)ethoxy)-2-methylphenyl)-3-(trifluoromethyl)-1,3,4,9-tetrahydro-2H-pyrido[3,4-b]indol-2-yl)-2-methylpropanoic acid]: 5.3 % free; for `COc1ccc(OCCNCCCF)c(F)c1[C@@H]1c2[nH]c3ccccc3c2C[C@@H](C)N1CC1(F)CC1` [Example 83, 3-fluoro-N-(2-(2-fluoro-3-((1R,3R)-2-((1-fluorocyclopropyl)methyl)-3-methyl-2,3,4,9-tetrahydro-1H-pyrido[3,4-b]indol-1-yl)-4-methoxyphenoxy)ethyl)propan-1-amine]: 2.5 % free.
